Source: ChEMBL document CHEMBL3045946, “Synthesis and biological activity studies of new hybrid molecules containing tryptamine moiety” (2012)
The source made the active and inactive calls. No cut-off for these calls is given here.

Assays:
[1] = tested on: Mycolicibacterium smegmatis; assay: Antibacterial activity against Mycobacterium smegmatis ATCC 607 after 18 hr by agar well diffusion method; type: functional
[2] = tested on: Candida albicans; assay: Antifungal activity against Candida albicans ATCC 60193 after 18 hr by agar well diffusion method; type: functional, organism-based
[3] = tested on: Enterococcus faecalis; assay: Antibacterial activity against Enterococcus faecalis ATCC 29212 after 18 hr by agar well diffusion method; type: functional
[4] = tested on: Pseudomonas aeruginosa; assay: Antibacterial activity against Pseudomonas aeruginosa ATCC 43288 after 18 hr by agar well diffusion method; type: functional
[5] = tested on: Saccharomyces cerevisiae; assay: Antifungal activity against Saccharomyces cerevisiae RSKK 251 after 18 hr by agar well diffusion method; type: functional, organism-based
[6] = tested on: Staphylococcus aureus; assay: Antibacterial activity against Staphylococcus aureus ATCC 25923 after 18 hr by agar well diffusion method; type: functional
[7] = tested on: Bacillus cereus; assay: Antibacterial activity against Bacillus cereus 702 Roma after 18 hr by agar well diffusion method; type: functional
[8] = tested on: Candida tropicalis; assay: Antifungal activity against Candida tropicalis after 18 hr by agar well diffusion method; type: functional, organism-based
[9] = tested on: Enterococcus faecalis; assay: Antibacterial activity against Enterococcus faecalis ATCC 29212 at 10 mg after 18 hr by agar well diffusion method; type: functional; settings: ATCC 29212, 18 h, read-out: IZ
[10] = tested on: Bacillus cereus; assay: Antibacterial activity against Bacillus cereus 702 Roma at 10 mg after 18 hr by agar well diffusion method; type: functional; settings: read-out: IZ
[11] = tested on: Staphylococcus aureus; assay: Antibacterial activity against Staphylococcus aureus ATCC 25923 at 10 mg after 18 hr by agar well diffusion method; type: functional; settings: ATCC 25923, 18 h, read-out: IZ
[12] = tested on: Pseudomonas aeruginosa; assay: Antibacterial activity against Pseudomonas aeruginosa ATCC 43288 at 10 mg after 18 hr by agar well diffusion method; type: functional; settings: ATCC 43288, 18 h, read-out: IZ

Row | Compound | inhibition zone (IZ) [1] | Activity [2] | Activity [3] | Activity [4] | Activity [5] | Activity [6] | inhibition zone (IZ) [7] | Activity [8] | inhibition zone (IZ) [4] | Activity [1] | Activity [7] | inhibition zone (IZ) [6] | inhibition zone (IZ) [3] | zone of inhibition at 10000 µg/disc [9] | zone of inhibition at 10000 µg/disc [10] | zone of inhibition at 10000 µg/disc [11] | zone of inhibition at 10000 µg/disc [12]
1 | Nn1c(S)nnc1Cn1nc(Cc2ccc(Cl)cc2)n(CCc2c[nH]c3ccccc23)c1=O | 7 mm | inactive | inactive | inactive | inactive | inactive | 7 mm | inactive | – | – | – | – | – | – | – | – | –
2 | O=c1[nH]nc(Cn2nc(Cc3ccc(Cl)cc3)n(CCc3c[nH]c4ccccc34)c2=O)n1Cc1ccccc1 | 10 mm | inactive | inactive | – | inactive | inactive | 12 mm | inactive | 10 mm | – | – | – | – | – | – | – | –
3 | Cc1ccc(Cc2nn(Cc3n[nH]c(=O)n3Cc3ccccc3)c(=O)n2CCc2c[nH]c3ccccc23)cc1 | 10 mm | inactive | inactive | – | inactive | inactive | 7 mm | inactive | 6 mm | – | – | – | – | – | – | – | –
4 | Cc1ccc(Cc2nn(CC(=O)N/N=C/c3ccc[nH]3)c(=O)n2CCc2c[nH]c3ccccc23)cc1 | – | inactive | inactive | inactive | inactive | inactive | – | inactive | – | inactive | inactive | – | – | – | – | – | –
5 | O=C(Cn1nc(Cc2ccc(Cl)cc2)n(CCc2c[nH]c3ccccc23)c1=O)N/N=c1\occ(-c2ccc(Cl)cc2)n1Cc1ccccc1 | – | inactive | inactive | inactive | inactive | – | 6 mm | inactive | – | inactive | – | 5 mm | – | – | – | – | –
6 | O=C(Cn1nc(Cc2ccc(Cl)cc2)n(CCc2c[nH]c3ccccc23)c1=O)N/N=C/c1ccc[nH]1 | 6 mm | inactive | inactive | inactive | inactive | inactive | – | inactive | – | – | inactive | – | – | – | – | – | –
7 | O=C(Cn1nc(Cc2ccc(Cl)cc2)n(CCc2c[nH]c3ccccc23)c1=O)NNS(=O)(=O)c1ccc(Cl)cc1 | 14 mm | inactive | – | – | inactive | – | 12 mm | inactive | 12 mm | – | – | 11 mm | – | – | – | – | –
8 | O=c1n(Cc2nnc(S)o2)nc(Cc2ccc(Cl)cc2)n1CCc1c[nH]c2ccccc12 | – | inactive | – | inactive | inactive | – | 6 mm | inactive | – | inactive | – | 8 mm | 10 mm | – | – | – | –
9 | Cc1ccc(Cc2nn(CC(=O)N/N=c3\scc(-c4ccc(Cl)cc4)n3-c3ccccc3)c(=O)n2CCc2c[nH]c3ccccc23)cc1 | – | inactive | inactive | inactive | inactive | inactive | – | inactive | – | inactive | inactive | – | – | – | – | – | –
10 | Cc1ccc(Cc2nn(CC(=O)NNS(=O)(=O)c3ccc(Cl)cc3)c(=O)n2CCc2c[nH]c3ccccc23)cc1 | 9 mm | inactive | inactive | – | inactive | – | 10 mm | inactive | 10 mm | – | – | 7 mm | – | – | – | – | –
11 | O=C(Cn1nc(Cc2ccc(Cl)cc2)n(CCc2c[nH]c3ccccc23)c1=O)NNS(=O)(=O)c1ccc(Br)cc1 | 9 mm | inactive | inactive | – | inactive | – | 12 mm | inactive | 12 mm | – | – | 8 mm | – | – | – | – | –
12 | O=C(Cn1nc(Cc2ccc(Cl)cc2)n(CCc2c[nH]c3ccccc23)c1=O)NNC(=O)NCc1ccccc1 | – | inactive | inactive | inactive | inactive | inactive | – | inactive | – | inactive | inactive | – | – | – | – | – | –
13 | Cc1ccc(Cc2nn(CC(=O)NNS(=O)(=O)c3ccc(Br)cc3)c(=O)n2CCc2c[nH]c3ccccc23)cc1 | 7 mm | inactive | inactive | – | inactive | inactive | 8 mm | inactive | 10 mm | – | – | – | – | – | – | – | –
14 | Cc1ccc(Cc2nn(Cc3nnc(S)o3)c(=O)n2CCc2c[nH]c3ccccc23)cc1 | 8 mm | inactive | – | inactive | inactive | – | 8 mm | inactive | – | – | – | 12 mm | 12 mm | – | – | – | –
15 | Cc1ccc(Cc2nn(CC(=O)N/N=C/c3ccccn3)c(=O)n2CCc2c[nH]c3ccccc23)cc1 | – | inactive | inactive | inactive | inactive | inactive | – | inactive | – | inactive | inactive | – | – | – | – | – | –
16 | O=C(Cn1nc(Cc2ccc(Cl)cc2)n(CCc2c[nH]c3ccccc23)c1=O)N/N=C/Cc1ccccc1 | – | inactive | inactive | inactive | inactive | inactive | – | inactive | – | inactive | inactive | – | – | – | – | – | –
17 | Cc1ccc(Cc2nn(Cc3nnc(S)n3N)c(=O)n2CCc2c[nH]c3ccccc23)cc1 | 6 mm | inactive | inactive | inactive | inactive | inactive | 7 mm | inactive | – | – | – | – | – | – | – | – | –
18 | Cc1ccc(Cc2nn(CC(=O)NNC(=S)Nc3ccccc3)c(=O)n2CCc2c[nH]c3ccccc23)cc1 | – | inactive | inactive | inactive | inactive | inactive | – | inactive | – | inactive | inactive | – | – | – | – | – | –
19 | COc1ccc(/C=N/NC(=O)Cn2nc(Cc3ccc(C)cc3)n(CCc3c[nH]c4ccccc34)c2=O)cc1 | – | inactive | inactive | inactive | inactive | inactive | – | inactive | – | inactive | inactive | – | – | – | – | – | –
20 | CN[C@@H]1[C@H](O[C@H]2[C@H](O[C@H]3[C@H](O)[C@@H](O)[C@H](N=C(N)N)[C@@H](O)[C@@H]3N=C(N)N)O[C@@H](C)[C@]2(O)C=O)O[C@@H](CO)[C@H](O)[C@H]1O [STREPTOMYCIN] | 35 mm | – | – | – | – | – | – | – | – | – | – | – | – | – | – | – | –
21 | COc1ccc(/C=N/n2c(S)nnc2Cn2nc(Cc3ccc(C)cc3)n(CCc3c[nH]c4ccccc34)c2=O)cc1 | 6 mm | inactive | inactive | – | inactive | – | 12 mm | inactive | 12 mm | – | – | 11 mm | – | – | – | – | –
22 | CC1(C)S[C@@H]2[C@H](NC(=O)[C@H](N)c3ccccc3)C(=O)N2[C@H]1C(=O)O [AMPICILLIN] | – | – | – | – | – | – | – | – | – | – | – | – | – | 10 mm | 15 mm | 35 mm | 18 mm
23 | COc1ccc(/C=N/NC(=O)Cn2nc(Cc3ccc(Cl)cc3)n(CCc3c[nH]c4ccccc34)c2=O)cc1 | – | inactive | inactive | inactive | inactive | inactive | – | inactive | – | inactive | inactive | – | – | – | – | – | –
